From patent publication US20160129089A1, “COMBINATION THERAPY” (ANTISENSE THERAPEUTICS LTD, priority 2013, published 2016)
e = 2'-O-(2-methoxyethyl) (MOE); d = 2'-deoxy (DNA)

Tested on: human growth hormone receptor mRNA
Assay: Inhibition of human growth hormone receptor mRNA levels by antisense oligonucleotides, quantitative real-time PCR, MCF7 cells
Type: cell-based
Set-up: concentration or dose not given beside the values
Settings: averages from three experiments
Experimental: “Target site” indicates the first (5′-most) nucleotide number on the particular target sequence to which the oligonucleotide binds. “% Inhib” indicates the inhibitory effect on hGHR mRNA levels by quantitative real-time PCR. Data are averages from three experiments in which MCF7 cells were treated with the antisense oligonucleotides.
All oligonucelotides in Table 1 are chimeric oligonucleotides (“gapmers”), 20 nucleotides in length, composed of a central “gap” region consisting of ten 2′-deoxynucleotides, which is flanked on both sides (5′ and 3′ directions) by five-nucleotide “wings”. The wings are composed of 2′-methoxyethyl (2′-MOE) nucleotides. The internucleoside (backbone) linkages are phosphorothioate (P═S) throughout the oligonucleotide. All uracils are 5-methyluracils (^MeU). Typically, the oligonucleotide is synthesized using 2-methoxyethyl modified thymidines not 5-methyluracils. All pyrimidines are C5 methylated (i.e., U, T, C are C5 methylated).

Substance	% INHIB (inhibitory effect on hGHR mRNA levels)
272346 (antisense CTCTTGGAGAAAACCATAGC; sugars from the 5' end e5 d10 e5, all phosphorothioate, methylation of C not given here) [compound 272346]	67%
272347 (antisense TCTACACTGATGATACTTTA; sugars from the 5' end e5 d10 e5, all phosphorothioate, methylation of C not given here) [compound 272347]	62%
272348 (antisense CACAGCTTTGAATTGAATTA; sugars from the 5' end e5 d10 e5, all phosphorothioate, methylation of C not given here) [compound 272348]	57%
272349 (antisense AGTCTTCCAAACACACAGCT; sugars from the 5' end e5 d10 e5, all phosphorothioate, methylation of C not given here) [compound 272349]	68%
272350 (antisense AGGCTGTTGTGAAATAGTAA; sugars from the 5' end e5 d10 e5, all phosphorothioate, methylation of C not given here) [compound 272350]	67%
272351 (antisense ATAGAAATGTTGTCAGGCTG; sugars from the 5' end e5 d10 e5, all phosphorothioate, methylation of C not given here) [compound 272351]	57%
272352 (antisense CCAAAATGACATTCTGAGAC; sugars from the 5' end e5 d10 e5, all phosphorothioate, methylation of C not given here) [compound 272352]	77%
272353 (antisense ATAATGGCTTATGTGGCCAC; sugars from the 5' end e5 d10 e5, all phosphorothioate, methylation of C not given here) [compound 272353]	72%
272354 (antisense AGTTATGTGACCCTGATTGA; sugars from the 5' end e5 d10 e5, all phosphorothioate, methylation of C not given here) [compound 272354]	65%
272355 (antisense TTGAGTGTTCCTAAAATGAA; sugars from the 5' end e5 d10 e5, all phosphorothioate, methylation of C not given here) [compound 272355]	24%
272356 (antisense ATGGAGGCTGGAGGTTCAAA; sugars from the 5' end e5 d10 e5, all phosphorothioate, methylation of C not given here) [compound 272356]	63%
272357 (antisense TAGGGTCCATCTTTCAAGAC; sugars from the 5' end e5 d10 e5, all phosphorothioate, methylation of C not given here) [compound 272357]	62%
272358 (antisense TCTCCAGATAGAATCTAAAC; sugars from the 5' end e5 d10 e5, all phosphorothioate, methylation of C not given here) [compound 272358]	53%
272359 (antisense TCCAAATATTCTGGTACTTT; sugars from the 5' end e5 d10 e5, all phosphorothioate, methylation of C not given here) [compound 272359]	72%
